Results from US7879547B2, “Method of detecting the presence of asthma or allergies in a patient” (Children's Hospital Medical Center, priority 2002, dated 2011).

Assays:
lung arginase [1] = experiment: Arginase activity in lung lysates incubated with NOHA in vitro (blood urea nitrogen reagent); type: biochemical, mice
Method: (§1) FIGS. 11A and 11B are line graphs showing the results of treating lung lysates with N(omega)-hydroxy-L-arginine (NOHA). FIG. 11A illustrates in vitro treatment of lung lysates from […] with NOHA. FIG. 11B illustrates in vitro treatment of transgenic mice that overexpress interleukin 4 with NOHA.
(§2) Arginase activity was measured using the blood urea nitrogen reagent (Sigma Chemical Company, St. Louis, Mo.) according to established techniques as exemplified in Wei, L. H., et al., Proc Natl Acad Sci USA 98, 9260-4. (2001); Li, H. et al. Am J Physiol Regul Integr Comp Physiol 282, R64-R69. (2002); Wei, L. H. et al., Am J Physiol Cell Physiol 279, C248-56. (2000). To measure levels of putrescine following acid extraction, ion-pair reverse phase high performance liquid chromatography was performed.
(§3) IL-4 lung transgenic mice, which have markedly elevated level of lung arginase mRNA and activity, were used to examine the effect of NOHA in vitro and in vivo (FIG. 11). In FIG. 11A, lung lysates from IL-4 lung transgenic mice were incubated with NOHA and the arginase activity at different doses of NOHA (x axis) and arginine is shown. In FIG. 11B, IL-4 transgenic mice were treated with intratracheal NOHA (two doses: 10 and 100 mcg) and the arginase activity in the lungs was measured 4 hrs later.

lung arginase [2] = experiment: Lung arginase activity after intratracheal NOHA in IL-4 lung transgenic mice; type: in vivo; conditions: IL-4 transgenic mice, intratracheal NOHA 10 and 100 mcg, measured 4 hrs later, FIG. 11B
Method: as §1, §2, §3

[3] = system: IL4/IL5 lung transgenic mice; experiment: Airway hyperresponsiveness to methacholine (Penh, barometric plethysmography) after intratracheal NOHA; type: in vivo; conditions: intratracheal NOHA 100 mcg, Penh recorded 4 hrs later, Example 20, FIG. 12
Method: FIG. 12 is a line graph showing the results of airway hyperreactivity measurements (recorded as Penh) in asthmatic mice (IL4/IL5 bitransgenic lung mice) treated with intratracheal NOHA. Airway reactivity to methacholine was assessed in conscious, unrestrained mice by barometric plethysmography, using apparatus and software supplied by Buxco (Troy, N.Y.). This system yields a dimensionless parameter known as enhanced pause (Penh), reflecting changes in wave-form of the pressure signal from the plethysmography chamber combined with a timing comparison of early and late expiration, which can be used to empirically monitor airway function. […]

asthma = experiment: Treatment of individual suffering from asthma with anti-arginase compound (inhalation); type: in vivo; conditions: inhalation of therapeutically effective amount
Excerpt: An individual suffering from asthma is identified. The individual is provided with a therapeutically effective amount of N(omega)-hydroxy-L-arginine to reduce the indications of asthma.

SMILES: N=C(NO)NCCC[C@H](N)C(=O)O [NOHA, N(omega)-hydroxy-L-arginine]
- arginase activity in lung lysates (lung arginase [1]; lung lysates from IL-4 lung transgenic mice incubated with different doses of NOHA and arginine, FIG. 11A): effective to reduce arginase activity in lung lysates
- arginase activity in the asthmatic lung (lung arginase [1]; summary statement referring to Example 15): blocks arginase activity in the asthmatic lung
- arginase activity in the lungs (lung arginase [2]): effective to reduce arginase activity
- development of allergen-induced airway hyperresponsiveness (Penh) [3]: blocks the development of allergen-induced airway hyperesponsiveness
- asthma symptoms (asthma): asthma symptoms are reduced
